Test results published in patent US9949489B2, “Methods for control of hemipteran insect stylet sheath structure formation” (The United States of America, as Represented by the …, priority 2015, dated 2018).

Legend:
D. citri [1] = assay: Liquid ACP diet sandwich feeding assay (MFC): inhibition of de novo stylet sheath formation; assay type: in vivo, Diaphorina citri; set-up: key: −: No effect apparent inhibition of stylet sheath; +/−: inconclusive inhibition; +: apparent slight inhibition effect; ++: increased apparent inhibition effect; +++: high inhibition effect; ++++: very high inhibition effect; +++++: complete inhibition of sheath synthesis; conditions: small molecule in liquid ACP diet, about 24 h, concentration, pH, 25° C. per Table 3
Procedure: (§1) The next step was to determine if addition of cellulase to the diet of D. citri would interfere with stylet sheath formation. A D. citri diet is prepared as described by Hall, David et al., “Research toward an artificial diet for adult Asian citrus psyllid,” Annals of the Entomological Society of America 103.4:611-617 (2010). Approximately 25 D. citri were collected into polystyrene Cellstar 35 mm×10 mm dishes (Griener Bio-One, Monroe, N.C.) that were then sealed using a single layer of Parafilm® M (Pechiney Plastic Packaging Company, Chicago, Ill.). Approximately 99 μl of liquid ACP diet (e.g., diet lacking the solidifying agar component, see Hall, et. al., 2010, supra) was mixed with approximately 1 μl of cellulase (Sigma Aldrich, St. Louis, Mo.) and mixed. […] layer Parafilm® M surface, which was then covered with another layer of Parafilm® M to form a sandwich (e.g., Parafilm® M—liquid ACP diet with cellulase—Parafilm® M) to allow ACP to feed into the liquid ACP diet containing cellulase. This MFC was then incubated at about 25° C., at about 75% relative humidity, with a light:dark cycle of approximately 14:10 hours for a period of about 24 hours. After about 24 hours, the stylet sheaths were observed using an inverted microscope. FIGS. 3G through 3I are images of three separate locations where D. citri made attempts to feed into the liquid ACP diet containing approximately 1 unit/μl cellulase.
(§2) Because many biomolecule polymerizing enzymes require divalent cations as cofactors, the effect of ethylenediaminetetraacetic acid (EDTA), a chelator of divalent cations, on ACP SS formation was tested by adding EDTA to the previously described liquid ACP diet (see Hall et al., 2010, supra). The EDTA was added to the liquid ACP diet at a concentration of approximately 2 mM EDTA in diH2O. Approximately 200 D. citri were placed in plastic Petri dishes. The dishes were covered with a single layer of Parafilm® M to form MFC. […] The MFC plates were incubated at a temperature of about 25° C., a relative humidity of about 75%, and a light/dark cycle of about 14:10 hours duration. Following the 24-hour incubation, the fluid (either liquid ACP diet containing EDTA or just the liquid ACP diet) between the two sheets of plastic was harvested by using a sterile 5 ml syringe and 20-gauge needle which was pushed into the center of the Parafilm® M-fluid-Parafilm® M sandwich, and the fluid was then removed by syringe plunger suction. The harvested fluids were put into sterile 50 ml conical vials, placed at about −80° C. until frozen. Each vial of harvested fluid was then lypholyzed overnight. The lyophilized product was then solubilized in […], placed at about −80° C. until frozen, then each new vial was lyopholyzed overnight. The lyophilized product was then solubilized in approximately 15 μL of approximately 1× Laemmili buffer (Bio-Rad, Hercules, Calif.) containing approximately 5% 2-mercaptoethanol. The sample was loaded onto a sodium dodecyl sulfate polyacrylamide gel (SDS-PAGE) and underwent electrophoresis. The SDS PAGE gel was then stained with coomassie. Uncommon bands between the liquid ACP diet containing EDTA and liquid ACP diet without EDTA (negative control) lanes were cut out and analyzed by Orbitrap (Thermo Scientific, Waltham, Mass.) protein analysis, according to manufacturer's protocol.
(§3) After about 24-hour incubation, D. citri feeding sites were observed. […] See also Table 2 and Table 3, infra.

D. citri [2] = assay: as above; assay type: in vivo, Diaphorina citri; conditions: for Effect (on ACP stylet sheath formation): D. citri, GRAS small molecule in 175 μL liquid ACP diet at the mM concentration of Table 8, about 24 h; for Effect on D. citri stylet sheath formation in liquid ACP diet: about 24 h, cellulase approx 1 unit/μl, BAPN 100 mM, EDTA approx 2 mM, proteases per Table 5
Procedure: as §1, §2, §3

[3] = test system: Bemisia tabaci biotype B whitefly; assay: Liquid ACP diet sandwich feeding assay: stylet sheath formation by whitefly; assay type: in vivo; set-up: key to Inhibition of Sheath Formation: −: No effect apparent inhibition of stylet sheath; +/−: inconclusive inhibition; +: apparent slight inhibition effect; ++: increased apparent inhibition effect; +++: high inhibition effect; ++++: very high inhibition effect; +++++: complete inhibition of sheath synthesis
Procedure: The effects of a protease (bromelain and ficin) contained within the previously described artificial diet (liquid ACP diet) were tested on the Bemisia tabaci biotype B whitefly (a Aleyrodidae, an SSFHI) using approximately 100 live B. tabaci. Approximately 100 live B. tabaci were placed into polystyrene Cellstar 35 mm×10 mm dishes (Griener Bio-One, Monroe, N.C.) using the liquid ACP diet “sandwich” described in Example 2, using approximately 200 μL liquid ACP diet with or without a protease using the conditions described in Table 6 below. The MFCs were incubated at a temperature of about 25° C., a relative humidity of about 75%, and a light:dark cycle of approximately 14:10 hours. MFCs were maintained within clear Pyrex® baking dishes with the membrane (liquid ACP diet “sandwich”) side up, and the baking dish covered in a single layer of clear plastic wrap to prevent external contaminant interactions with the membrane surface during incubation. After about 24 hours incubation, the B. tabaci feeding sites were observed using an inverted microscope to see the effects of proteases in diet on the stylet sheaths for B. tabaci.
After performing the experiments using liquid ACP diet containing either bromelain or ficin experiment on B. tabaci, a similar experiment is performed substituting BAPN for the enzyme. […]

SMILES	Inhibition of Sheath Formation (D. citri [1])	Effect (on ACP stylet sheath formation) (D. citri [2])	also measured
O[C@H](CS)[C@H](O)CS (racemic) [Dithiothreitol Solution (DTT), Dithiothreitol]	‘+++++’ (D. citri)		
O=C([O-])CN(CC(=O)[O-])CC(=O)[O-].[Na+].[Na+].[Na+] [Nitrilotriacetic acid trisodium salt]	‘+++++’ (D. citri)		
O=C1C[C@@H](c2ccc(O)cc2)Oc2cc(O)cc(O)c21 [Naringenin]		Malformed sheaths	
CC1(C)O[C@H]2CC(=O)OC[C@]23[C@H]2CC[C@@]4(C)[C@H](c5ccoc5)OC(=O)[C@H]5O[C@]54[C@]2(C)C(=O)C[C@@H]13 [Limonin]		Malformed sheaths	
N#CCCN.O=C(O)/C=C/C(=O)O [3-aminopropionitrile fumarate salt]	‘+++++’ (D. citri)		Inhibition of Sheath Formation ([3]; WF (Bemisia tabaci, B biotype), BAPN 50 mM in diet): ‘+++++’ (WF); Effect on B. tabaci stylet sheath formation in liquid ACP diet ([3]; about 24 hours, bromelain or ficin 10 units in 250 μl of diet, BAPN 50 mM): prevents stylet sheath formation; Effect on D. citri stylet sheath formation in liquid ACP diet (D. citri [2]): prohibited the solidification of the ACP SS
C[C@@H]1O[C@@H](OC[C@H]2O[C@@H](Oc3cc(O)c4c(c3)O[C@H](c3ccc(O)c(O)c3)CC4=O)[C@H](O)[C@@H](O)[C@@H]2O)[C@H](O)[C@H](O)[C@H]1O [Eriocitrin]		Malformed sheaths	Effect (on ACP stylet sheath formation) (D. citri [2]; listed as eriocitrin): malformation of sheaths
O=C1C[C@@H](c2ccc(O)c(O)c2)Oc2cc(O)cc(O)c21 [Eriodictyol]		Malformed sheaths	
C[C@@H]1O[C@@H](O[C@H]2[C@H](Oc3cc(O)c4c(c3)O[C@H](c3ccc(O)cc3)CC4=O)O[C@H](CO)[C@@H](O)[C@@H]2O)[C@H](O)[C@H](O)[C@H]1O [Naringin]		Malformed sheaths	
COc1ccc([C@@H]2CC(=O)c3c(O)cc(O[C@@H]4O[C@H](CO[C@@H]5O[C@@H](C)[C@H](O)[C@@H](O)[C@H]5O)[C@@H](O)[C@H](O)[C@H]4O)cc3O2)cc1 [Didymin]		Malformed sheaths	
COc1ccc([C@@H]2CC(=O)c3c(O)cc(O[C@@H]4O[C@H](CO[C@@H]5O[C@@H](C)[C@H](O)[C@@H](O)[C@H]5O)[C@@H](O)[C@H](O)[C@H]4O)cc3O2)cc1O [Hesperidin]		No Effect	
CC(=O)O[C@H]1CC(=O)OC(C)(C)[C@@H]2CC(=O)[C@]3(C)[C@H](CC[C@@]4(C)[C@H](c5ccoc5)OC(=O)[C@H]5O[C@]543)[C@@]12C [Nomilin]			Effect (on ACP stylet sheath formation) (D. citri [2]; listed as nomilin): inhibition of flange solidification
[NH4+].[NH4+].[SH-].[SH-].[S]=[Mo]=[S] [Ammonium Tetrathiomolybdate]	‘+++++’ (D. citri)		Effect on D. citri stylet sheath formation in liquid ACP diet (D. citri [2]): potent inhibitor of D. citri sheath formation
O=C(O)CN(CCN(CC(=O)O)CC(=O)O)CC(=O)O [Ethylenediaminetetraacetic acid (EDTA), Ethylenediaminetetraacetic acid]	‘+++++’ (D. citri)		Effect on D. citri stylet sheath formation in liquid ACP diet (D. citri [2]): can inhibit sheath formation
O=c1ccc2ccc(O)cc2o1 [7-HO-Coumarin, 7-hydroxy-coumarin]		Malformed sheaths	
O=c1cc(CO)occ1O [Kojic Acid]	‘++’ (D. citri)		
CC1(C)O[C@H]2CC(=O)OC[C@]23[C@H]2CC[C@@](C)([C@@H](O[C@@H]4O[C@H](CO)[C@@H](O)[C@H](O)[C@H]4O)c4ccoc4)[C@@]4(O[C@@H]4C(=O)O)[C@]2(C)C(=O)C[C@@H]13 [Limonin glucoside]		Malformed sheaths	
OCc1ccc(O)cc1 [4-hydroxybenzyl alcohol]	‘−’ (D. citri)		
COc1ccc([C@@H]2CC(=O)c3c(O)cc(O)cc3O2)cc1O [Hesperetin]		Malformed sheaths	
